{
  "source": "patent US5482957A",
  "about": "“Azole derivatives, process for their preparation and their use” (Hoechst Aktiengesellschaft, priority 1991, dated 1996)",
  "data": [
    {"target": "angiotensin II receptor", "assay": "Displacement of 125I- or 3H-angiotensin II from receptor preparations from various organs (liver, lung, adrenal gland, brain etc.)", "type": "binding", "settings": "Table 1; radioligand displacement, 25° C., 90 min, pH 7.4", "experimental": "Alternatively, the affinity of the compounds of the formula I for the angiotensin II receptor can be determined by measurement of the ^125 I-angiotensin II or ^3 H-angiotensin II displacement of receptor preparations from various organs (liver, lung, adrenal gland, brain etc.).\nTo this end, the prepared membranes are suspended in an incubation buffer ([…], pH 7.4, containing 135 mM NaCl, 10 mM KCl, 10 mM MgCl2, 5 mM glucose, 0.2% bovine serum albumin and the protease inhibitors PMSF, 0.3 mM, and bacitracin, 0.1 mM) and incubated at 25° C. for 90 min together with the radioactively labeled angiotensin II and various concentrations of the compounds to be tested. Bound and free radioligand are then separated by filtration through micro glass fiber filters (GF51, Schleicher and Schull) in a cell collector (SKATRON).\nThe degree of displacement of the radioligand from the receptor by the test compounds is determined by measurement of the receptor-bound radioactivity on the filters by means of a beta- or gamma-spectrometer. The amount of the displacement of the radioligand from the receptor by the test compounds is indicated by the IC50, i.e. the concentration of the inhibitor which displaces 50% of the bound radioligand from the receptor. The calculation of the IC50 values is carried out by means of PC software (LIGAND, G. A. McPherson 1985, Elsevier BIOSOFT, 68 Hills Road, Cambridge, CB2 1LA, UK.).", "units": {"IC50": "nM"}, "values": [
      {"compound": "CCCCc1nc(SC)c(C(=O)OCC)n1Cc1ccc(-c2ccccc2S(=O)(=O)NC(=O)OCCc2ccccc2)cc1", "note": "[Example 151]", "IC50": 0.4},
      {"compound": "CCCCc1nc(Cl)c(C=O)n1Cc1ccc(-c2ccccc2S(=O)(=O)NC(=O)Nc2nc(C)cs2)cc1", "note": "[Example 32]", "IC50": 3.5},
      {"compound": "CCCCc1nc(OC)c(C=O)n1Cc1ccc(-c2ccccc2S(=O)(=O)NC(=O)OCc2ccccc2)cc1", "note": "[Example 186, 1-{[(2'-Benzyloxycarbonylaminosulfonyl)biphenyl-4-]methyl}-2-n-butyl-4-methoxyimidazole-5-carbaldehyde]", "IC50": 6.5},
      {"compound": "CCCCc1nc(SC)c(C(=O)OCC)n1Cc1ccc(-c2ccccc2S(=O)(=O)NC(=O)n2cccc2)cc1", "note": "[Example 138]", "IC50": 1.7},
      {"compound": "CCCCc1nc(SC)c(C(=O)O)n1Cc1ccc(-c2ccccc2S(=O)(=O)NC(=O)OCc2cccs2)cc1", "note": "[Example 160]", "IC50": 0.73},
      {"compound": "CCCCc1nc(SC)c(C(=O)OCC)n1Cc1ccc(-c2ccccc2S(=O)(=O)NC(=O)NCc2ccc(OC)c(OC)c2)cc1", "note": "[Example 92]", "IC50": 280},
      {"compound": "C=CCNC(=O)NS(=O)(=O)c1ccccc1-c1ccc(Cn2c(CCCC)nc(Cl)c2C=O)cc1", "note": "[Example 55, 1-[(2'-allylaminocarbonylaminosulfonylbiphenyl-4-yl)methyl]-2-n-butyl-4-chloroimidazole-5-carboxaldehyde]", "IC50": 8.8},
      {"compound": "C#CCNC(=O)NS(=O)(=O)c1ccccc1-c1ccc(Cn2c(CCCC)nc(SC)c2C(=O)O)cc1", "note": "[Example 64]", "IC50": 0.5},
      {"compound": "CCCCc1nc(Cl)c(C=O)n1Cc1ccc(-c2cccc(S(=O)(=O)NC(=O)Nc3nnn[nH]3)c2)cc1", "note": "[Example 5]", "IC50": 16000},
      {"compound": "CCCCc1nc(Cl)c(C=O)n1Cc1ccc(-c2ccccc2S(=O)(=O)NC(=O)NCCC)cc1", "note": "[Example 2, 1-[(2'-n-propylaminocarbonylaminosulfonylbiphenyl-4-yl)methyl]-2-n-butyl-4-chloroimidazole-5-carboxaldehyde]", "IC50": 8000},
      {"compound": "CCCCc1nc(SC)c(C(=O)OCC)n1Cc1ccc(-c2ccccc2S(=O)(=O)NC(=O)NC)cc1", "note": "[Example 195]", "IC50": 3},
      {"compound": "CCCCc1nc(SC)c(C(=O)O)n1Cc1ccc(-c2ccccc2S(=O)(=O)NC(=O)NCCCN2CCCCC2C)cc1", "note": "(stereo not shown) [Example 111]", "IC50": 2.9},
      {"compound": "CCCCc1nc(SC)c(C(=O)O)n1Cc1ccc(-c2ccccc2S(=O)(=O)NC(=O)Nc2ccc(F)cc2)cc1", "note": "[Example 101]", "IC50": 2.4},
      {"compound": "CCCCc1nc(SC)c(C(=O)OCC)n1Cc1ccc(-c2ccccc2S(=O)(=O)NS(=O)(=O)c2ccc([N+](=O)[O-])cc2)cc1", "note": "[Example 191]", "IC50": 21.4},
      {"compound": "CCCCc1nc(Cl)c(C=O)n1Cc1ccc(-c2ccccc2S(=O)(=O)NC(=O)Nc2ccccc2)cc1", "note": "[Example 1, 1-[(2'-phenylaminocarbonylaminosulfonylbiphenyl-4-yl)methyl]-2-n-butyl-4-chloroimidazole-5-carboxaldehyde]", "IC50": 5000},
      {"compound": "CCCCc1nc(SC)c(C(=O)O)n1Cc1ccc(-c2ccccc2S(=O)(=O)NC(=O)NCC2CCC3CC2C3(C)C)cc1", "note": "(stereo not shown) [Example 135]", "IC50": 5.6},
      {"compound": "CCCCc1nc(SC)c(C(=O)O)n1Cc1ccc(-c2ccccc2S(=O)(=O)NC(=O)OCCOC(C)C)cc1", "note": "[Example 157]", "IC50": 1.4},
      {"compound": "CCCCc1nc(SC)c(C(=O)OCC)n1Cc1ccc(-c2ccccc2S(=O)(=O)NC(=O)NCC2CC2)cc1", "note": "[Example 110]", "IC50": 0.5},
      {"compound": "CCCCc1nc(SC)c(C(=O)O)n1Cc1ccc(-c2ccccc2S(=O)(=O)NC(=O)OCc2cccs2)cc1", "note": "[Example 164]", "IC50": 0.86},
      {"compound": "CCCCc1nc(SC)c(C(=O)O)n1Cc1ccc(-c2ccccc2S(=O)(=O)NC(=O)NC2CCCCC2)cc1", "note": "[Example 59]", "IC50": 1.3},
      {"compound": "CCCCc1nc(Cl)c(C=O)n1Cc1ccc(-c2ccccc2S(=O)(=O)NC(=O)NCCc2ccccn2)cc1", "note": "[Example 29]", "IC50": 1.1},
      {"compound": "CCCCc1nc(SC)c(C(=O)O)n1Cc1ccc(-c2ccccc2S(=O)(=O)NC(=O)NCC2CC2)cc1", "note": "[Example 109]", "IC50": 0.6},
      {"compound": "CCCCc1nc(Cl)c(C=O)n1Cc1ccc(-c2ccccc2S(=O)(=O)NC(=O)Nc2ccc(F)cc2)cc1", "note": "[Example 25]", "IC50": 1400},
      {"compound": "CCCCc1nc(Cl)c(C=O)n1Cc1ccc(-c2cccc(S(=O)(=O)NC(=O)Nc3ncccn3)c2)cc1", "note": "[Example 4]", "IC50": 1100},
      {"compound": "CCCCc1nc(SC)c(C(=O)O)n1Cc1ccc(-c2ccccc2S(=O)(=O)NC(=O)NCc2ccc(OC)c(OC)c2)cc1", "note": "[Example 89]", "IC50": 1.1},
      {"compound": "CCCCc1nc(SC)c(C(=O)O)n1Cc1ccc(-c2ccccc2S(=O)(=O)NC(=O)N[C@@H](Cc2ccccc2)C(=O)O)cc1", "note": "[Example 98]", "IC50": 1.4},
      {"compound": "CCCCc1nc(SC)c(C(=O)OCC)n1Cc1ccc(-c2ccccc2S(=O)(=O)NC(=O)NCc2ccccc2)cc1", "note": "[Example 73]", "IC50": 2.5},
      {"compound": "CCCCc1nc(Cl)c(C=O)n1Cc1ccc(-c2ccccc2S(=O)(=O)NC(=O)NCCc2ccccc2)cc1", "note": "[Example 37]", "IC50": 1.1},
      {"compound": "CCCCc1nc(SC)c(C(=O)O)n1Cc1ccc(-c2ccccc2S(=O)(=O)NC(=O)N[C@@H](CO)c2ccccc2)cc1", "note": "[Example 125]", "IC50": 2.8},
      {"compound": "CCCCc1nc(SC)c(C(=O)OCC)n1Cc1ccc(-c2ccccc2S(=O)(=O)NC(=O)NCc2ccccc2OC)cc1", "note": "[Example 84]", "IC50": 4.3},
      {"compound": "CCCCc1nc(SC)c(C(=O)OCC)n1Cc1ccc(-c2ccccc2S(=O)(=O)NC(=O)OCC)cc1", "note": "[Example 170]", "IC50": 2.7},
      {"compound": "CCCCc1nc(SC)c(C(=O)OCC)n1Cc1ccc(-c2ccccc2S(=O)(=O)NC(=O)Nc2ccc(F)cc2)cc1", "note": "[Example 100]", "IC50": 68.5},
      {"compound": "CCCCc1nc(SC)c(C(=O)O)n1Cc1ccc(-c2ccccc2S(=O)(=O)NC(=O)NCCCc2ccccc2)cc1", "note": "[Example 81]", "IC50": 0.79},
      {"compound": "CCCCc1nc(SC)c(C(=O)O)n1Cc1ccc(-c2ccccc2S(=O)(=O)NS(=O)(=O)N(C)C)cc1", "note": "[Example 179, 1-[1-(2'-dimethylsulfamoylaminosulfonylbiphenyl-4-yl)methyl]-2-n-butyl-4-methylthioimidazole-5-carboxylic acid]", "IC50": 2.6},
      {"compound": "CCCCc1nc(SC)c(C(=O)OCC)n1Cc1ccc(-c2ccccc2S(=O)(=O)NC(=O)NCC2CCNCC2)cc1", "note": "[Example 117]", "IC50": 1.2},
      {"compound": "CCCCc1nc(OC)c(C=O)n1Cc1ccc(-c2ccccc2S(=O)(=O)NC(=O)OCC)cc1", "note": "[Example 185, 1-{[(2'-Ethoxycarbonylaminosulfonyl)biphenyl-4-yl]-methyl}-2-n-butyl-4-methoxyimidazole-5-carbaldehyde]", "IC50": 5.9},
      {"compound": "CCCCc1nc(SC)c(C(=O)OCC)n1Cc1ccc(-c2ccccc2S(=O)(=O)NC(=O)NCC2CCC3CC2C3(C)C)cc1", "note": "(stereo not shown) [Example 134]", "IC50": 180},
      {"compound": "C#CCCOC(=O)NS(=O)(=O)c1ccccc1-c1ccc(Cn2c(CCCC)nc(SC)c2C(=O)O)cc1", "note": "[Example 154]", "IC50": 1.8},
      {"compound": "CCCCc1nc(SC)c(C(=O)O)n1Cc1ccc(-c2ccccc2S(=O)(=O)NC(=O)n2cccc2)cc1", "note": "[Example 139]", "IC50": 2.8},
      {"compound": "CCCCc1nc(SC)c(C(=O)O)n1Cc1ccc(-c2ccccc2S(=O)(=O)NC(=O)OCC)cc1", "note": "[Example 171]", "IC50": 0.7},
      {"compound": "CCCCc1nc(SC)c(C(=O)OCC)n1Cc1ccc(-c2ccccc2S(=O)(=O)NC(=O)N2CCSCC2)cc1", "note": "[Example 144]", "IC50": 5.3},
      {"compound": "CCCCc1nc(Cl)c(C=O)n1Cc1ccc(-c2ccccc2S(=O)(=O)NC(=O)Nc2ccccc2C)cc1", "note": "[Example 36]", "IC50": 16},
      {"compound": "CCCCc1nc(SC)c(C(=O)O)n1Cc1ccc(-c2ccccc2S(=O)(=O)NC(=O)NCCc2ccccc2)cc1", "note": "[Example 67]", "IC50": 0.91}
    ]}
  ]
}
